Experimental data as given in US11933783B2, “Liquid biopsy yield enhancement” (priority 2020, dated 2024).
Like-named read-outs stand apart in the source and are kept apart here.

Columns and labels:
[1] = system: multiple myeloma residual disease (diseased cells mobilized into blood)
Description: Patients may be matched across experimental groups by age, sex, and other clinical factors, such as multiple myeloma burden or genetic profile of the multiple myeloma in the patient. When in complete remission using conventional techniques after appropriate therapy, patients in the control group undergo a blood as well as bone marrow examination each of which is subjected to MRD detection/assay using the ClonoSEQ® technique (Adaptive Biotechnologies). […] About 12 hours after plerixafor administration, patients in the LBYE group undergo a blood draw. The blood samples are subjected to MRD assay using the ClonoSEQ® technique. […] In another variation of the experiment, where myeloma patients serve as their own controls, patients undergo bone marrow examination after attaining complete remission. The marrow is subjected to MRD assay by ClonoSEQ®. After the marrow exam is done, each patient receives 20 mg plerixafor and the blood is sampled 12 hours later. Blood samples are subjected to MRD assay by ClonoSEQ®.

cfDNA / ctDNA = details: plasma
Description: Cell-free DNA (cfDNA) is isolated from patient plasma samples according to known methods. The concentration of the isolated cfDNA from LBYE and control patients are determined.

[2] = system: solid tumor residual disease (diseased cells mobilized into blood)
Description: When in complete remission using conventional techniques after appropriate therapy, patients in the control group undergo a blood examination each of which is subjected to MRD detection/assay using an appropriate assay (e.g. The Guardant 360 liquid biopsy or the Tempus XF liquid biopsy). […] About 12 hours after plerixafor administration, patients in the LBYE group undergo a blood draw. The blood samples are subjected to the same MRD assay.
In another variation of the experiment, where cancer patients serve as their own controls, patients undergo blood examination after attaining complete remission. Afterwards, each patient receives 20 mg plerixafor and the blood is sampled 12 hours later. Both samples are subjected to MRD assay.

[3] = system: lymphoma mutations and genetic variations; details: single dose of 20 mg, blood 12 hours later, vs control group bone marrow
Description: Human patients who are diagnosed with lymphoma are split into two experimental groups, an “LBYE” group and a “control group.” Patients may be matched across experimental groups by age, sex, and other clinical factors, such as lymphoma burden or genetic profile of the lymphoma in the patient.
Patients in the “LBYE” experimental group are administered a single dose of 20 mg plerixafor and undergo blood sampling 12 hours later. This sample is analyzed for the presence of various mutations and genetic variations known to influence prognosis in myeloma. […] In a variation on the above experiment, the LBYE group patients undergo a bone marrow examination which is subjected to appropriate testing.
In another variation on the experiment, the LBYE group's marrow and blood sample are pooled and analyzed in a single assay to make the test more cost-effective. […] The mononuclear cell fraction is analyzed for the presence of lymphoma CTCs by multiparametric flow cytometry according to methods described herein. Lymphoma CTCs are genetically profiled, e.g., by sequencing to determine the mutational profile of the CTCs. Mutational profile of the CTC sample is, in some cases, compared to mutational profile of lymphoma cells obtained from bone marrow sample from the same patient.

[4] = system: multiple myeloma mutations and genetic variations; details: single dose of 20 mg, blood 12 hours later, vs control group bone marrow
Description: Patients may be matched across experimental groups by age, sex, and other clinical factors, such as multiple myeloma burden or genetic profile of the multiple myeloma in the patient.

[5] = system: lymphoma residual disease (diseased cells mobilized into blood)
Description: About 12 hours after plerixafor administration, patients in the LBYE group undergo a blood draw. The blood samples are subjected to MRD assay. […] In another variation of the experiment, where lymphoma patients serve as their own controls, patients undergo blood sampling after attaining complete remission. The blood is subjected to MRD assay. After the blood test is done, each patient receives 20 mg plerixafor and the blood is sampled 12 hours later. These blood samples are subjected to MRD assay by the same technique.

HSC = details: in vivo; cited from earlier work
[6] = system: solid tumor mutations and genetic variations; details: single dose of 20 mg, blood 12 hours later, vs control group solid tumor examination
Description: Human patients who are diagnosed with one or more solid tumors are split into two experimental groups, an “LBYE” group and a “control group.” Patients may be matched across experimental groups by age, sex, and other clinical factors, such as solid tumor burden or genetic profile of the solid tumor in the patient.
Patients in the “LBYE” experimental group are administered a single dose of 20 mg plerixafor and undergo blood sampling 12 hours later. This sample is analyzed for the presence of various mutations and genetic variations known to influence prognosis in myeloma. […] In a variation on the above experiment, the LBYE group patients undergo a solid tumor examination which is subjected to appropriate testing.
In another variation on the experiment, the LBYE group's tumor and blood samples are pooled and analyzed in a single assay to make the test more cost-effective. […] The mononuclear cell fraction is analyzed for the presence of solid tumor CTCs by multiparametric flow cytometry according to methods described herein. Solid tumor CTCs are genetically profiled, e.g., by sequencing to determine the mutational profile of the CTCs. Mutational profile of the CTC sample is, in some cases, compared to mutational profile of solid tumor cells obtained from solid tumor sample from the same patient.

[7] = complete remission, single 20 mg dose, blood about 12 hours after, vs control group blood and bone marrow
[8] = patients as own controls, 20 mg, blood 12 hours later

c1cc(CN2CCCNCCNCCCNCC2)ccc1CN1CCCNCCNCCCNCC1 [plerixafor, 1-{[4-(1,4,8,11-tetrazacyclotetradec-1-ylmethyl)phenyl]methyl}-1,4,8,11-tetrazacyclotetradecane]
Number of patients with residual disease detected (MRD assay, ClonoSEQ) [1, 7]: Residual disease is detected in a greater number of patients in the LBYE group than in the control group
Proportion of patients positive for MRD, blood after LBYE vs bone marrow ([1]; patients as own controls, 20 mg, blood 12 hours later, ClonoSEQ): A greater proportion of patients is found to be positive for MRD from the blood after the LBYE technique than the bone marrow
cfDNA concentration/amount after LBYE (cfDNA / ctDNA; lymphoma, patients as own controls, amongst patients positive for MRD): the concentration/amount of cfDNA is higher after LBYE
cfDNA concentration, LBYE group vs control group (cfDNA / ctDNA; multiple myeloma): higher cfDNA concentrations than patients in the control group
cfDNA concentration, LBYE group vs control group (cfDNA / ctDNA; solid tumor): higher cfDNA concentrations than patients in the control group
Number of patients with residual disease detected (MRD assay) ([2]; complete remission, single 20 mg dose, blood about 12 hours after, vs control group blood): Residual disease is detected in a greater number of patients in the LBYE group than in the control group
Proportion of patients positive for MRD, post- vs pre-plerixafor blood sample [2, 8]: A greater proportion of patients is found to be positive for MRD from the blood sample obtained after plerixafor administration, as compared to the pre-plerixafor blood sample
Frequency and breadth of abnormalities (mutations and genetic variations) [3]: greater frequency and breadth of abnormalities than those in the control group
Frequency and breadth of abnormalities (mutations and genetic variations) [4]: greater frequency and breadth of abnormalities than those in the control group
Number of patients with residual disease detected (MRD assay) [5, 7]: Residual disease is detected in a greater number of patients in the LBYE group than in the control group
Proportion of patients positive for MRD, blood after LBYE vs non-LBYE blood sample [5, 8]: A greater proportion of patients is found to be positive for MRD from the blood after the LBYE technique than the non-LBYE blood sample
Mobilization of HSC (HSC): rapidly mobilize HSC within hours
Frequency and breadth of abnormalities (mutations and genetic variations) [6]: greater frequency and breadth of abnormalities than those in the control group
